Test system: leukocytes from the peripheral blood
Test: Release of prostaglandin E2 (PGE2) and peptide leukotrienes (pLT) from leukocytes after modulation, quantified by EIA
Format: cell-based, human
Settings: for PGE2 (lipid measurement parameter A) in cell culture supernatant / pLT (lipid measurement parameter B) in cell culture supernatant: 100,000 cells/ml, 37° C., 30 minutes; for Standardized effector quotient (PGE/pLT) / Standardized modulation quotient PGE2 / Standardized modulation quotient pLT: divided by quotient of standard group
Procedure: Human leukocytes of the peripheral blood are separated from plasma with the aid of a dextran gradient, and adjusted to a defined cell count (100,000 cells/ml). Subsequently, the stimulation is effected by incubation of the cells, e.g. without or while adding arachidonic acid as modulating indicator substance, or anti-IgE as modulating effector for a defined time (30 minutes) at 37° C. in cell culture medium (e.g. RPMI 1640). After sedimentation of the cells by centrifugation for 5 minutes with 800×g at 4° C., the cell-free supernatant is collected and can be stored at −80° C. under nitrogen or argon, if desired. Afterwards, these measurement samples are transferred to a polystyrol plate coated with prostaglandin E2 or peptide leukotrienes, respectively, and incubated for 18 hours at 4° C. while adding an anti-prostaglandin-E2- or anti-peptide-leukotriene-antibody, respectively, (“competitive assay”). After a washing step, an incubation at 23° C. for 2 hours is performed with a biotinylated secondary antibody against the first antibody. After further washing, incubation follows with a streptavidin-conjugated peroxidase at 23° C. for 1 hour, and after further washing, a peroxidase substrate is added and the optical density is determined after about 30 minutes with a multichannel photometer. With the aid of the standard curves carried along, the measurement values can now be quantified and used for calculating the lipid measurement parameter stimulation/effector quotient profiles (an example for the calculation is given herein below).
1) Leukocytes from the peripheral blood of investigation group 1/standard group/investigation group 2 are obtained by blood withdrawal, followed by density gradient separation (3% dextran solution) for separating plasma and leukocytes. The leukocytes thus obtained are washed 3 times with phosphate buffered solution (PBS) and pooled/resuspended in cell culture medium ([…]), before they are adjusted to a cell count of 100,000 cells/ml (investigation group 2 only in this example; in principle, a second group is not necessary for this test, but serves here for a better understanding and as second comparison group, both to the standard group and to the investigation group).
2) The cells are divided into 3 equal parts (e.g. 3 times with 1 ml cell suspension with 100,000 cells/ml each) in reaction vessels (e.g. plastic or glass vessels).
A control solution is added to the first part-sample (=without further modulator, =zero or blank value; control solution is the solvent, in which the modulators are dissolved).
Arachidonic acid is added to the second part-sample (concentration: 10^−5 M; =indicator substance).
An anti-immunoglobulin-E solution is added to the third part-sample (e.g. 1:100 dilution of the anti-human-IgE-solution from DAKO, =modulator or modulating substance).
Exposition/incubation with the indicator substance arachidonic acid and the modulator anti-immunoglobulin-E-solution is started simultaneously at e.g. 37° C. for e.g. 30 minutes.
Thereafter, the cells are separated from the cell culture medium, e.g. by centrifugation at 4° C. with a sedimentation force of e.g. 800×g. The supernatant obtained from the 3 part-samples, separated for each part-sample, is then collected in suitable vessels (e.g. cryovessels) and stored until EIA analysis at e.g. −70° C.
3) The contents of prostaglandin E2 (PGE2) and peptide leukotrienes (pLT9) in the cell culture supernatants of the 3 part-samples are analysed and quantified by enzyme immunological assays (EIA) specific for PGE2 (=lipid measurement parameter A) and pLT (=lipid measurement parameter B), respectively.

CCCCC/C=C\C/C=C\C/C=C\C/C=C\CCCC(=O)O [arachidonic acid]
PGE2 (lipid measurement parameter A) in cell culture supernatant (Investigation group 1 (I1)): 4120 ± 236 pg/mL | pLT (lipid measurement parameter B) in cell culture supernatant (Investigation group 1 (I1)): 150±10.4 pg/ml | Effector quotient (PGE/pLT) (Investigation group 1 (i1)): 27.5 | Modulation quotient PGE2 (modulated value / zero value A0) (Investigation group 1 (i1)): 11.8 | Modulation quotient pLT (modulated value / zero value B0) (Investigation group 1 (i1)): 1.3 | Standardized effector quotient (PGE/pLT) (Investigation group 1 (i1)): 0.941 | Standardized modulation quotient PGE2 (Investigation group 1 (i1)): 5.1 | Standardized modulation quotient pLT (Investigation group 1 (i1)): 0.21 | PGE2 (lipid measurement parameter A) in cell culture supernatant (Investigation group 2 (I2)): 3976 ± 245 pg/mL | pLT (lipid measurement parameter B) in cell culture supernatant (Investigation group 2 (I2)): 128 ± 10.4 pg/ml | Effector quotient (PGE/pLT) (Investigation group 2 (i2)): 31.1 | Modulation quotient PGE2 (modulated value / zero value A0) (Investigation group 2 (i2)): 1.8 | Modulation quotient pLT (modulated value / zero value B0) (Investigation group 2 (i2)): 2.4 | Standardized effector quotient (PGE/pLT) (Investigation group 2 (i2)): 1.065 | Standardized modulation quotient PGE2 (Investigation group 2 (i2)): 0.78 | Standardized modulation quotient pLT (Investigation group 2 (i2)): 0.38 | PGE2 (lipid measurement parameter A) in cell culture supernatant (Standard group (N)): 4170 ± 275 pg/mL | pLT (lipid measurement parameter B) in cell culture supernatant (Standard group (N)): 143 ± 12.4 pg/ml | Effector quotient (PGE/pLT) (Standard group (n)): 29.2 | Modulation quotient PGE2 (modulated value / zero value A0) (Standard group (n)): 2.3 | Modulation quotient pLT (modulated value / zero value B0) (Standard group (n)): 6.2 | Standardized effector quotient (PGE/pLT) (Standard group (n)): 1 (0.9-1.1) | Standardized modulation quotient PGE2 (Standard group (n)): 1 (0.8-1.2) | Standardized modulation quotient pLT (Standard group (n)): 1 (0.5-1.2) | induced synthesis of prostaglandin E2 compared with persons without pathological findings (analgesic intolerance): unstriking | elevation of induced synthesis of peptide leukotriene compared with persons without pathological findings (analgesic intolerance, unstriking to faintly elevated): 0-40%

From patent publication US20050026296A1, “Diagnostic method based on lipid measuring parameter modulations/effector quotient profiles” (priority 2001, published 2005)
